Experiments:
[1] = target: T1, tubulin (Sus scrofa, UniProt P02550+P02554); assay: Tubulin assembly assay (tubulin binding); type: biochemical, porcine; settings: under the assay conditions used
T1 construct: The procedure used is modified from Shelanski et al; from tissue
Protocol: The buffer was prepared with deionised water and the pH of the solution was adjusted to 6.6 by the drop-wise addition of 10M aq. NaOH. The buffer was stored at 4° C. prior to use.
Equipment: A Fluostar Optima 96 well plate reader equipped with a thermostat capability.
The tubulin assembly was followed by observing an increase in optical density of a tubulin solution at 350 nm at 37° C. Typically 1 ml of tubulin solution was diluted with EB (5 ml) and GTP solution (25 μl, 5 μl per ml of EB added) to the mixture. The mixture was vortexed for ten seconds in order to ensure the homogeneity of the mixture. 100 μl of the resultant solution was pipetted into a well in the 96 well plate. The increase in optical density of the tubulin solution was measured over a time course of ten minutes at 350 nm and 37° C. […] Accordingly, adjustments were made to the quantity of buffer added in order to obtain a protein concentration within the desired range. […] Tubulin solution (1000 was subsequently pipetted into each of the same three wells. The plate was immediately incubated at 37° C. and was subjected to orbital shaking for five seconds. The UV absorption was measured at 350 nm over a time course of ten minutes. The maximum slope of the resulting curve was measured. The slope of the blank represents the maximum rate of tubulin polymerisation.

[2] = test system: rat aortic ring cultures; assay: Aortic ring assay (anti-angiogenic effect); type: cell-based
[3] = test system: rat aortic ring cultures; assay: Aortic ring assay (anti-vascular model); type: cell-based; settings: 1 μM
Protocol: The aortic ring assay is an ideal assay for testing the activity of anti-vascular, anti-angiogenic or pro-angiongenic agents. This method was originally developed and modified by Nicosia. The aorta can be excised from mice or rats, cut into ˜1 mm rings and cultured in either basement membrane matrix (matrigel) or collagen gel. Following incubation for several days the rings start to generate outgrowths of branching microvessels which are lined by endothelial cells and supported by pericytes and fibroblasts. The angiogenic response of the aorta is a self-limited process regulated by endogenous growth factors including bFGF [13], VEGF [14], PDGF [15] and angiopoietins.
The rat aorta model is an ex vivo assay which combines advantages of both in vitro and in vivo models. The process of angiogenesis takes place in a defined culture environment which can be easily adapted to different experimental conditions according to the requirement of the study. The cells of the aortic outgrowth have not been modified by repeated passages in culture and thus newly formed microvessels reproduce the characteristics of the vasculature formed during angiogenesis in vivo [17-18]. There is no influx of leukocytes from circulating blood therefore inflammatory complications which affect the interpretation of in vivo assays are minimised. For the purpose of this study, rat aortic ring cultures were used to investigate firstly the anti-vascular and then the anti-angiogenic activity of test compounds.
The successful growth of the aortic rings into a mircovessel network was dependent on several factors including (i) the amount of periaortic fibroadipose tissue left on the ring, (ii) the orientation of the ring, the way which the ring was embedded into the matrigel and (iii) the volume of the matrigel used.
The aortic ring assay is an ex vivo assay which allows the analyst to examine the inhibition/stimulation of angiogenesis as well as the breakdown of existing vasculature. Basement membrane matrix (matrigel) was stored at −20° C. Prior to use, matrigel vial was placed on ice and kept at 4° C. overnight in order to thaw. The matrigel was kept on ice at all times for the duration of the experiment. Aortic rings were obtained by excising the thoracic aorta of 5-10 weeks old Wistar male rats and removing the fibroadipose tissue from the aortic wall. The rings were obtained by cross-sectioning the aorta at ˜1 mm intervals, removed any blood clots by washing several times with EBM-2. Matrigel (80 μl) was placed uniformly in each well of a 12-well plate and the aortic rings were then placed individually in between the matrigel layer with the lumen perpendicular to the surface of the plate. The matrigel solution was allowed to solidify for 30-40 minutes at 37° C. and 1 ml EBM-2 medium (supplemented with 2% FBS and […] streptomycin/penicillin solution) was added to each culture. The aortic rings were kept in a humidified CO2 incubator at 37° C. and fresh medium was replaced three times a week starting from day 3. Once an established microvessel network was developed (day 7-9), test compounds diluted in EBM-2 medium (1 ml) were added to each well and incubated at 37° C. for 24 h. The cultures were monitored for microvessel breakdown over time and images were taken 1 h, 4 h and 24 h after treatment using an Olympus CKX41 inverted microscope. Images were captured with an E-330 SLR camera system and processed using Cell̂ A software. Each compound concentration was tested in duplicate. Results were presented as images showing the microvessel breakdown at each time point.

T1 sequence (P02550 whole entry): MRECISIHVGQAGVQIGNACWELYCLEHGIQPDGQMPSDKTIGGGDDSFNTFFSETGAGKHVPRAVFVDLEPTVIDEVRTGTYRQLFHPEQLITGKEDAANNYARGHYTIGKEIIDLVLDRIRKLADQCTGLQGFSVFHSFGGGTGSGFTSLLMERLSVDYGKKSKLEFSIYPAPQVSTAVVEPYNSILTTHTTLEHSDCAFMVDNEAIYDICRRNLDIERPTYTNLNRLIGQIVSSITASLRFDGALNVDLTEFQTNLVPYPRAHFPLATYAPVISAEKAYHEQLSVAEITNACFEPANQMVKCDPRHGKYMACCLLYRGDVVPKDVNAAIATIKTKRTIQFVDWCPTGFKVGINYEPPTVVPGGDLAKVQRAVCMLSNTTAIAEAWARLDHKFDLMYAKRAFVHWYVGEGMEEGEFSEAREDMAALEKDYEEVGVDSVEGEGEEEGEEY
T1 sequence (P02554 whole entry): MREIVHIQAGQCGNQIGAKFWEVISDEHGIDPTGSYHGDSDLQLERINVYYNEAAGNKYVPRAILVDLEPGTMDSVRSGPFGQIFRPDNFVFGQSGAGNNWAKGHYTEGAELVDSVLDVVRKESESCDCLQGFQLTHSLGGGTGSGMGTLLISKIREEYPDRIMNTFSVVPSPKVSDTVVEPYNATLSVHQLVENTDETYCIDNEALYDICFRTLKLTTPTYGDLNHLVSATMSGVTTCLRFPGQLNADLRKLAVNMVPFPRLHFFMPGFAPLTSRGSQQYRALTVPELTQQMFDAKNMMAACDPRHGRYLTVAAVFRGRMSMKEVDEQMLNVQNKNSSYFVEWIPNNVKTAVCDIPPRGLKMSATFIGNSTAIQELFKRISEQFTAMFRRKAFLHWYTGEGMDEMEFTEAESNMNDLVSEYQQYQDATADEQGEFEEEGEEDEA

Row | SMILES | tubulin binding activity (in words) [1] | anti-angiogenic effect (microvessel area) ([2]; 0.1 μM) | anti-angiogenic effect (microvessel density) ([2]; 1 μM) | anti-vascular effect on established microvessel network ([3]; 4 h of treatment) | anti-vascular effect on established microvessel network ([3]; 24 h incubation)
1 | COc1ccc(C2=CC(=O)CCc3cc(OC)c(OC)c(OC)c32)cc1O [Compound 12, 9-(3-hydroxy-4-methoxyphenyl)-1,2,3-trimethoxy-6,7-dihydro-5H-benzo[a]cyclohepten-7-one] | inactive |  |  |  | 
2 | COc1ccc(C2=C/C(=N/OCC(=O)NO)CCc3c2cc(OC)c(OC)c3OC)cc1N [Compound 30, 2-[9-(3-Amino-4-methoxy-phenyl)-2,3,4-trimethoxy-5,6-dihydro-benzocyclohepten-7-ylideneaminooxy]-N-hydroxy-acetamide] |  | negligible reduction | significantly (p<0.01) lower microvessel density | satisfactory activity | clear microvessel disruption
